# Reference: PMC8698672, “Selective Anticancer and Antimicrobial Metallodrugs Based on Gold(III) Dithiocarbamate Complexes” (Biomedicines, 2021)
# Columns and labels:
# [1] = test system: Undifferentiated Caco-2/TC7 cell; assay: Apoptosis/necrosis, Annexin V-FITC / 7-AAD flow cytometry; format: cell-based, human; conditions: 20 μM, 24 h
# Method: For the studies of apoptosis, using the detection of phosphatidylserine in the outer layer of the plasma membrane, an Annexin V-FITC Apoptosis Detection kit (Immunostep, Salamanca, Spain) was used. After incubation with the complexes, the cells were collected and transferred to flow-cytometry tubes. A negative control was prepared with untreated cells, which was used to define the basal level of apoptotic, necrotic, or dead cells. The staining with Annexin V-FITC and 7-Aminoactinomycin D (7-AAD) was performed according to the manufacturer’s recommendations. The cells were washed twice with temperate phosphate-buffered saline (PBS) and resuspended in 200 μL of 1x Annexin-binding buffer. After that, 2.5 μL Annexin V-FITC and 2.5 μL […] were added to each 50 μL of cell suspension. After incubation for 15 min at RT in the dark, 400 μL of 1× Annexin-binding buffer were added and analyzed by flow cytometry within 1 h. The signal intensity was measured using a Gallios Flow Cytometer (Beckman Coulter, Brea, CA, USA) and analyzed using the Kaluza Analysis Software (Beckman Coulter).
# After obtaining great results from the cell viability studies, it was determined that only non-cytotoxic complexes on normal cells are good candidates as anticancer drugs, so complexes C1, C5, and C6 were selected for the following studies. Thus, we proceeded to elucidate the action mechanism of these three complexes to induce cell death. The most convenient cell death for anticancer drugs is apoptosis, since in this way no inflammation processes occur and it is carefully controlled. The apoptotic way is normally characterized by several morphological changes in the cell membrane, by which phosphatidylserine (PS) is exposed, moving from the inner part to the outer surface of the membrane. Thanks to this translocation, Annexin V (FITC-conjugated) can interact selectively with the PS, differentiating healthy cells from apoptotic cells. Besides, cells undergoing late apoptosis stages and necrotic cells present deep damage in the membrane that makes 7-aminoactinomycin D (7-AAD) access the nucleus. Therefore, by using flow cytometry, all different cell populations can be distinguished.
# Figure 4 Undifferentiated Caco-2/TC7 cell apoptotic-state (a) and necrotic-state (b) analysis after 24 h of incubation with C1, C5, and C6 (20 µM).
# Caco-2 cells = assay: Cell cycle analysis, PI staining flow cytometry; format: cell-based, human; conditions: 20 μM, 24 h
# Method: After incubation with the complexes, the cells were collected, washed twice with PBS, fixed in 70% ice-cold ethanol, and stored at 4 °C for 24 h. After centrifugation, cells were resuspended in PBS containing PI (50 μg/mL) and RNase A (100 μg/mL). After incubation for 30 min at RT in the dark, PI-stained cells were analyzed for DNA content in a Gallios Flow Cytometer (Beckman Coulter). […] Cell cycle distribution was determined on a linear scale. The percentage of cells in cycle phases was determined using the Kaluza Analysis Software (Beckman Coulter).
# To stop the uncontrolled replication of tumor cells is still one of the main aims in the chemotherapy field; thus, arresting the tumor cell cycle in as many stages as possible is considered crucial. […] As is known, the geometry and structure of the complex have a great impact on the action mechanism of the drug, so there are examples of gold(III) complexes that alter the cell cycle at the G0/G1 phase, but also others at G2/M phase.
# Figure 5 Cell population (%) in each stage of the cell cycle obtained by flow cytometry after 24 h of incubation of the cells with DMSO (control) and gold(III) complexes 1, 5, and 6 (20 μM).
# [2] = Stability in phosphate buffer (pH 7.4, 37 °C) followed by UV–Vis over 24 h; format: physicochemical; conditions: 50 µM
# Method: (§1) The stability of the gold complexes was analyzed by absorption UV spectroscopy. UV–Vis absorption spectra of the complexes were recorded on a Thermo Scientific spectrophotometer (Madrid, Spain). Solutions of C1–6 (5 × 10^−5 M) in 10 mM phosphate buffer (pH = 7.4, 137 mM NaCl) were prepared from 20 mM DMSO solutions of the complexes and thereafter monitored by measuring the electronic spectra over 24 h at 37 °C. To evaluate the stability in the presence of biological reductants, all complexes were pre-solved in a minimum amount of DMSO and then diluted in 10 mM phosphate buffer (pH 7.4, 20 mM NaCl) to a final concentration of 10 µM [41]. All experiments were measure on a quartz microplate. Studies with L-glutathion reduced (GSH) and ascorbic acid (AsA) were conducted by increasing the final concentration of 0 to 50 µM (GSH) and from 0–20 µM for AsA.
# Due to the aqueous nature of the bloodstream, studies to understand the behavior of our complexes in such an environment were considered necessary in order to determine the stability in simulated physiological conditions, pH = 7.4 and 37 °C. […] Besides, in the cases of complexes C1–4, a low-intensity broad band was detected (322 nm) (Figure 2 and Figure S3). […]
# This is usually associated with the formation of Au(III)-OH bonds, increasing the water solubility and, consequently, the intensity of absorbance. […]
# [3] = Stability in the presence of reduced L-glutathione (GSH), UV–Vis; format: physicochemical; conditions: GSH 0–50 µM, PBS, 37 °C, 24 h
# Method: as §1
# This is usually associated with the formation of Au(III)-OH bonds, increasing the water solubility and, consequently, the intensity of absorbance. […] We observed that our complexes were stable with the addition of GSH over 24 h, even in a high excess of GSH to Au(III) complexes (50 vs. 16 µM) (Figure S4), since no evidence of decomposition or new bands was detected. […]
Compound,necrosis [1],percentage of cells in apoptosis vs control [1],"effect on cell cycle (cells in G0/G1, S, G2/M phases) vs control (Caco-2 cells)",Stability in PBS (UV–Vis spectra over time) [2],Stability towards GSH (UV–Vis spectra) [3]
"Cc1ccc(-c2ccccn2)[c]([Au+][S]C(=S)N(C)C)c1.F[P-](F)(F)(F)(F)F [Complex C1, [Au(tpy)(dmdtc)] PF6]",did not die because of necrosis,no significant differences,did not have a significant impact,absence of new bands around 550 nm,
"CN(C)C(=S)[S][Au+][c]1ccccc1-c1ccccn1.F[P-](F)(F)(F)(F)F [Complex C2, [Au(ppy)(dmdtc)]PF6]",,,,,slight changes in intensity
"CCN(CC)C(=S)[S][Au+][c]1cc(C)ccc1-c1ccccn1.F[P-](F)(F)(F)(F)F [Complex C3, [Au(tpy)(dedtc)]PF6]",,,,,slight changes in intensity
"Cc1ccc2[c](c1)[Au-]1([S]C(N(Cc3ccccc3)Cc3ccccc3)=[S+]1)[n+]1ccccc1-2.F[P-](F)(F)(F)(F)F (stereo not shown) [Complex C5, [Au(tpy)(dbdtc)]PF6]",did not die because of necrosis,no significant differences,did not have a significant impact,slight increase in the intensity of 328 nm band,
"F[P-](F)(F)(F)(F)F.S=C([S][Au+][c]1ccccc1-c1ccccn1)N(Cc1ccccc1)Cc1ccccc1 [Complex C6, [Au(ppy)(dbdtc)]PF6]",did not die because of necrosis,no significant differences,did not have a significant impact,,
